Source: patent publication US10125095B2, “Abscisic acid derivative” (NATIONAL UNIVERSITY CORPORATION SHIZUOKA UNIVERSITY, priority 2014, dated 2018)

How the values were obtained:
[1] = system: thale cress (Arabidopsis thaliana, Col-0) seedlings; experiment: Thale cress growth test; format: in vivo; conditions: sprayed once a day, three weeks' culture
Description: Seeds of thale cress (Arabidopsis thaliana, Col-0) were sequentially immersed for 1 minute respectively in 500 μL of an aqueous solution of 5% bleach+1% SDS, 500 μL of a 70% aqueous solution of ethanol and 500 μL of a 70% aqueous solution of ethanol, washed five times in 1 mL of sterilized water, and then suspended in a 0.1% aqueous solution of agar. 25 mL each of germination medium (containing ½ MS medium inorganic salts) sterilized in an autoclave was added to a sterilized plastic petri dish, in which 60 to 80 seeds suspended in the 0.1% aqueous solution of agar were planted and, in a dark place, the seeds were vernilized at 4° C. for 3 days. The seeds were cultured at 22° C. under continuous light for 10 days. 40 g […] of sterilized soil (organic culture soil:vermiculite=1:1) was added to a plastic pot (50 mm×50 mm×50 mm, 35 mm bottom surface×35 mm height). Six plastic pots thus provided were placed in a 3000 mL-tray, 300 mL (depth 10 mm) of an aqueous solution of 1000-fold diluted HYPONeX (tradename (registered trademark), product of HYPONeX JAPAN CORP., LTD.) was added thereto and five roots each of thale cress seedlings were transplanted from the plastic petri dish. The seedlings were cultured at 22° C. under conditions of 16 hour light period-8 hour dark period, and 1 mL of an aqueous solution (prepared so as the final concentration of the compound of Example 7 to be 50 μM) of 0.1% DMSO (containing the compound of Example 7)+0.1% Approach BI (tradename (registered trademark), product of Kao Corporation) was sprayed once a day. Further, 300 mL of an aqueous solution of 2000-fold diluted HYPONeX was added every week. The same treatment as above was carried out using the compound of Comparative Example 1. Note that the seedlings, to which 1 mL of an aqueous solution of 0.1% DMSO+0.1% Approach BI without containing the above compound was sprayed once a day, were used as controls. […]

[2] = target: T1, HAB1 (Arabidopsis thaliana, UniProt Q9CAJ0); experiment: Protein dephosphorylation enzyme activity test, no receptor; format: biochemical, thale cress; conditions: control = 100%
T1 construct: GST (N); made in house; host or cells: Escherichia coli BL21(DE3)pLysS
T1 sequence (Q9CAJ0 23-511): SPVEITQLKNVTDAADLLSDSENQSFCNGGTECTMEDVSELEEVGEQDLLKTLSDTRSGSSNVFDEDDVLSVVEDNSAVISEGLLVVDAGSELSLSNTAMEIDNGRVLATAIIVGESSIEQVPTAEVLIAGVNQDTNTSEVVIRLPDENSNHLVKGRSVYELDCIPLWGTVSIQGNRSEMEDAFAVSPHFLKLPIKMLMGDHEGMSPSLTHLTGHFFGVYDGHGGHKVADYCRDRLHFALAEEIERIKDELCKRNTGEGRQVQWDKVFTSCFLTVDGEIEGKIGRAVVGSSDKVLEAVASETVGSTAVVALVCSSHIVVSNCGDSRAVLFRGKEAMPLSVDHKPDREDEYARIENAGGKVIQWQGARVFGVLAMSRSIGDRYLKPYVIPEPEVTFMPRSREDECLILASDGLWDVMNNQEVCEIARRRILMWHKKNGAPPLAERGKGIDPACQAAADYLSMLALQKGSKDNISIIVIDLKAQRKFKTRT
Description: A plasmid (pGex-2T-GST-HAB1 or pET28-6×His-PYL) encoded with PYR/PYL/RCAR proteins (PYL, abscisic acid receptor) or protein dephosphorylation enzyme HAB1 of thale cress was transformed to Escherichia coli (HAB1:BL21(DE3)pLysS, PYL:BL21-codonplus(DE3)-RIPL). Isopropyl-β-thiogalactopyranoside was added to the culture broth, which had been subjected to pre-culture (30° C., 180 rpm, 15 hours) and main culture (30° C., 180 rpm, 4 hours), and the protein-expressed (16° C., 150 rpm, 18 hours) crude enzyme solution was purified using FPLC thereby preparing the recombined PYL (PYR1, PYL1-6, PYL8-10) and HAB1. β-Mercaptoethanol, a manganese chloride aqueous solution, HAB1, PYL, a solution of the sample in dimethylsulfoxide and ultrapure water were sequentially added to a 96-well plate, allowed to stand at 22° C. for 30 minutes. Subsequently p-nitrophenylphosphate, which is the artificial substrate of HAB1, was added thereto to start the reaction, and the plate was placed in a microplate reader (TECAN, Infinite™ N200 NanoQuant). The absorbance at 405 nm due to p-nitrophenol, which is the hydrolysate of p-nitrophenylphosphate, was measured 3 minutes later from the reaction initiation, and HAB1 activity was calculated by the following formula (2). Note that the fraction to which only dimethylsulfoxide was added was considered to be the control and the activity thereof was defined as 100%. […] HAB1 specific activity (%)=Absorbance when sample was added/Absorbance of control×100 (2)

[3] = system: lettuce (Lactuca saliva) seeds; experiment: Lettuce seed germination test; format: in vivo; conditions: co-applied with ABA
[4] = system: bok choy (Brassica rapa var. chinensis) seeds; experiment: Bok choy seed germination test; format: in vivo; conditions: co-applied with ABA

SMILES	Growth of thale cress ([1]; only ABA, 5 μM)	HAB1 Specific activity (%) None ([2]; sample alone) [%]	Recovery of seed germination rate decreased by ABA [3]	HAB1 Specific activity (%) None ([2]; ABA + compound) [%]	Recovery of seed germination rate decreased by ABA [4]	Growth suppression effect of ABA on thale cress ([1]; 50 μM compound co-applied with 5 μM ABA)
CC1=CC(=O)CC(C)(C)[C@@]1(O)/C=C/C(C)=C\C(=O)O [ABA, abscisic acid]	the growth of thale cress was notably suppressed	97	–	–	–	–
CC1=C[C@@H](OCC#Cc2ccccc2)CC(C)(C)[C@@]1(O)/C=C/C(C)=C\C(=O)O [Example 1, (2Z,4E)-5-((1S,4S)-1-hydroxy-2,6,6-trimethyl-4-((3-phenylprop-2-yn-1-yl)oxy)cyclohex-2-en-1-yl)-3-methylpenta-2,4-dienoic acid]	–	83.8	recovered the seed germination rates once decreased by ABA	81	recovered the seed germination rates once decreased by ABA	–
CC1=C[C@@H](OCC#Cc2ccc(C)cc2)CC(C)(C)[C@@]1(O)/C=C/C(C)=C\C(=O)O [Example 7]	–	–	–	–	–	the growth suppression effect by ABA was notably improved and the thale cress growth was recovered to the same extent as the controls
